The values below come from patent publication US20250296959A1, “B7-H3 TARGETING PEPTIDES AND CONSTRUCTS THEREOF” (Mariana Oncology Inc., priority 2024, published 2025).

The target in one test is T1, human 4lg B7-H3 (Homo sapiens, UniProt Q5ZPR3).
T1 sequence (Q5ZPR3 29-534): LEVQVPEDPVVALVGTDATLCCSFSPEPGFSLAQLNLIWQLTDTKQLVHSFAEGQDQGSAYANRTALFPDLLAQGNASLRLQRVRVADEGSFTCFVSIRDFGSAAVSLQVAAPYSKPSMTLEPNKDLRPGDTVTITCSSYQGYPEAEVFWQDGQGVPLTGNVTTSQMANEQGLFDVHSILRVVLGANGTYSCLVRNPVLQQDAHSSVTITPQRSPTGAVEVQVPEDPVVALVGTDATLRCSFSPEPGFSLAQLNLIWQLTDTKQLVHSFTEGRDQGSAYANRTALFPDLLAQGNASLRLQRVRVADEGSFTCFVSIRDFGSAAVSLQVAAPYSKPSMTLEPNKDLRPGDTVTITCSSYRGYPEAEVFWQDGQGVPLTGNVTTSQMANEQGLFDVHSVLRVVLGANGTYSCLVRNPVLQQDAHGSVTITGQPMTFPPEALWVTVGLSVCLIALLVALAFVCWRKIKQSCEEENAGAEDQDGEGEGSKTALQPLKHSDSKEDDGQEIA
The test is described as follows: Affinity determination by surface plasmon resonance (SPR) to 4Ig B7-H3. Conditions: 4Ig B7-H3. A general note: Surface plasmon resonance follows binding to a sensor surface in real time, without labels.

Test [1] concerns Calu-6 cell line. In words: Net internalization of [177Lu]Lu-labeled peptide in Calu-6 cells. Format: cell-based, Human. As to conditions: 1 hour, 37° C., glycine pH 2.5 acid wash. Put shortly:
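Calu-6 cells, human non-engineered lung cancer expressing B7-H3, resuspended in 1% PBSA at 5 million cells/mL and incubated with the 177Lu-labeled conjugate (labeled at 80 °C, pH ~5, RP-HPLC checked). Gamma counting of the bound fraction, then of the pellet after two glycine pH 2.5 acid strips and NaOH lysis, gives internalized activity.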

In test [2] the test system is Calu-6 cell line. In words: Cell associated (bound) fraction of [177Lu]Lu-labeled peptide in Calu-6 cells. As to conditions: 1 hour, 37° C. Format: cell-based, Human. Put shortly: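 Detached B7-H3-expressing human lung cancer cells at 5 million/mL were exposed for 1 hour at 37 °C to 0.8 μCi of the 177Lu-labelled peptide, which was formulated in 1% PBSA after labelling at 80 °C, pH ~5. Supernatant and two cold washes counted as unbound, and resuspended cells gamma-counted as the cell-associated fraction.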

The mark [3] stands for this setting: read-out: SPR KD—25° C., 25° C. flow cell temperature.
[4] abbreviates: read-out: SPR KD—37° C., 37° C. flow cell temperature.
The mark [5] stands for this setting: SPR KD—37° C., 37° C. flow cell temperature.

Like-named read-outs stand apart in the source and are kept apart here. Starred links: 1 amine or outer side, 2 acyl side, 3 side chain; linkers in the order of their positions; H or OH if unused. Positions of bridges follow the written chain, without caps; N, C: chain ends. Non-standard residues stand in square brackets, D forms with d. Residues, ends and D or L forms follow the SMILES beside them. Groups on a side chain read outwards from the residue. *: point of attachment. X2 = O=C(O)CN1CCN(CC(=O)O)CCN(CC(=O)NCCOCCOCCOCCOCC(=O)*)CCN(CC(=O)O)CC1; Ala(1-CH2CO2H-4-piperidyl) = N[C@@H](CC1CCN(CC(=O)O)CC1)C(=O)O; Ala(piperidin-4-yl) = O=C([C@H](CC1CCN([*:3])CC1)N[*:1])[*:2]; DOTA = O=C(O)CN1CCN(CC(=O)O)CCN(CC(=O)*)CCN(CC(=O)O)CC1; Phe(4-NHCONH2) = NC(=O)Nc1ccc(C[C@H](N)C(=O)O)cc1; Trp(5-F) = N[C@@H](Cc1c[nH]c2ccc(F)cc12)C(=O)O; 1Nal = N[C@@H](Cc1cccc2ccccc12)C(=O)O; Ala(4-THP) = N[C@@H](CC1CCOCC1)C(=O)O; Val(3-OH) = CC(C)(O)[C@H](N)C(=O)O; PEG4 = NCCOCCOCCOCCOCCC(=O)O; Tle = CC(C)(C)[C@H](N)C(=O)O; hLeu = CC(C)CC[C@H](N)C(=O)O; Sar = CNCC(=O)O

As usually defined, the Kd is the free concentration of one partner at which half of the binding sites on the other are occupied at equilibrium, for simple one-to-one binding. Turning to `CC(=O)N[C@@H](CCC(C)C)C(=O)N[C@@H](Cc1ccc(O)cc1)C(=O)N[C@H]1CSSC[C@@H](C(=O)N[C@@H](Cc2c[nH]c3ccc(F)cc23)C(=O)N[C@@H](Cc2ccccc2)C(=O)N[C@H](C(=O)N[C@H](CCCCNC(=O)CN2CCN(CC(=O)O)CCN(CC(=O)O)CCN(CC(=O)O)CC2)C(N)=O)[C@@H](C)O)NC(=O)[C@H](Cc2ccc(O)cc2)NC(=O)[C@H](C(C)C)NC(=O)[C@H](CC(=O)O)NC(=O)[C@H](Cc2ccc(O)cc2)NC(=O)[C@H](CCCCN)NC(=O)CN(C)C(=O)[C@H](C(C)C)NC1=O` [compound 77, Ac-hLeu-Y-C-V-Sar-K-Y-D-V-Y-C-5FW-F-Thr-dLys(DOTA)-CONH2] (Ac-[hLeu]YCV[Sar]KYDVYC[Trp(5-F)]FT[dK](DOTA)-NH2; disulfide 3-11), the Kd on human 4lg B7-H3 (setting [3]) lay within 1 to 10 nM. Besides, in the test on Calu-6 cell line [1], the “% net internalization” value is “A (%≤25)”. Also, the “% cell associated fraction” value in the test on Calu-6 cell line [2] is recorded as “C (%>50)”.
`CC(=O)N[C@@H](CCC(C)C)C(=O)N[C@@H](Cc1ccc(O)cc1)C(=O)N[C@H]1CSSC[C@@H](C(=O)N[C@@H](Cc2c[nH]c3ccc(F)cc23)C(=O)N[C@@H](Cc2ccccc2)C(=O)N[C@H](C(N)=O)C(C)(C)O)NC(=O)[C@H](Cc2ccc(O)cc2)NC(=O)[C@H](C(C)C)NC(=O)[C@H](CC(=O)O)NC(=O)[C@H](CC2CCN(C(=O)CCOCCOCCOCCOCCNC(=O)CN3CCN(CC(=O)O)CCN(CC(=O)O)CCN(CC(=O)O)CC3)CC2)NC(=O)[C@H](CCCCN)NC(=O)CNC(=O)[C@H](C(C)(C)C)NC1=O` [compound 383, Ac-hLeu-Y-C-Tbg-G-K-Pip(PEG4-DOTA)Ala-D-V-Y-C-5FW-F-hydroxyVal-CONH2] (Ac-[hLeu]YC[Tle]GK[Ala(piperidin-4-yl)]([PEG4-DOTA])DVYC[Trp(5-F)]F[Val(3-OH)]-NH2; disulfide 3-11): the Kd on human 4lg B7-H3 (setting [4]) is < 1 nM. In addition, in the test on Calu-6 cell line [1], the “% net internalization” value is “B (25<%≤50)”. The “% cell associated fraction” value with Calu-6 cell line [2] was “B (25<%≤50)”.
Regarding `CC(=O)N[C@@H](CCC(C)C)C(=O)N[C@@H](Cc1ccc(O)cc1)C(=O)N[C@H]1CSSC[C@@H](C(=O)N[C@@H](Cc2c[nH]c3ccc(F)cc23)C(=O)N[C@@H](Cc2ccccc2)C(=O)N[C@H](C(=O)N[C@H](CCCCNC(=O)CN2CCN(CC(=O)O)CCN(CC(=O)O)CCN(CC(=O)O)CC2)C(=O)O)C(C)(C)O)NC(=O)[C@H](Cc2ccc(O)cc2)NC(=O)[C@H](C(C)C)NC(=O)[C@H](CC(=O)O)NC(=O)[C@H](CC2CCOCC2)NC(=O)[C@H](CC2CCN(CC(=O)O)CC2)NC(=O)CNC(=O)[C@H](C(C)(C)C)NC1=O` [compound 339, Ac-hLeu-Y-C-Tbg-G-[Pip(CH2CO2H)Ala]-ThpA-D-V-Y-C-5FW-F-hydroxyVal-dLys(DOTA)-COOH] (Ac-[hLeu]YC[Tle]G[Ala(1-CH2CO2H-4-piperidyl)][Ala(4-THP)]DVYC[Trp(5-F)]F[Val(3-OH)][dK](DOTA)-OH; disulfide 3-11), the Kd at human 4lg B7-H3 (setting [4]) is < 1 nM. Also, the “% net internalization” value in the test on Calu-6 cell line [1] is given as “B (25<%≤50)”. Further, the “% cell associated fraction” value in the test on Calu-6 cell line [2] was “C (%>50)”.
Take `CC(=O)N[C@@H](CCC(C)C)C(=O)N[C@@H](Cc1ccc(O)cc1)C(=O)N[C@H]1CSSC[C@@H](C(=O)N[C@@H](Cc2cccc3ccccc23)C(=O)N[C@@H](Cc2ccccc2)C(=O)N2CCC[C@H]2C(=O)N[C@H](CCCCNC(=O)COCCOCCOCCOCCNC(=O)CN2CCN(CC(=O)O)CCN(CC(=O)O)CCN(CC(=O)O)CC2)C(N)=O)NC(=O)[C@H](Cc2ccc(O)cc2)NC(=O)[C@H](C(C)C)NC(=O)[C@H](CC(=O)O)NC(=O)[C@H](CC2CCOCC2)NC(=O)[C@H](CCCCN)NC(=O)CNC(=O)[C@H](C(C)(C)C)NC1=O` [compound 259, Ac-hLeu-Y-C-Tbg-G-K-ThpA-D-V-Y-C-1Nal-F-Pro-dLys(PEG4-DOTA)-CONH2] (Ac-[hLeu]YC[Tle]GK[Ala(4-THP)]DVYC[1Nal]FP[dK](X2)-NH2; disulfide 3-11): the Kd on human 4lg B7-H3 (SPR KD—25° C., 25° C. flow cell temperature) was < 1 nM; on human 4lg B7-H3 (setting [5]), 1 to 10 nM. Further, the “% net internalization” value with Calu-6 cell line [1] was “A (%≤25)”. The “% cell associated fraction” value in the test on Calu-6 cell line [2] is reported as “B (25<%≤50)”.
As for `CC(=O)N[C@@H](CCC(C)C)C(=O)N[C@@H](Cc1ccc(O)cc1)C(=O)N[C@H]1CSSC[C@@H](C(=O)N[C@@H](Cc2c[nH]c3ccc(F)cc23)C(=O)N[C@@H](Cc2ccccc2)C(=O)N[C@H](C(=O)N[C@H](CCCCNC(=O)CN2CCN(CC(=O)O)CCN(CC(=O)O)CCN(CC(=O)O)CC2)C(N)=O)[C@@H](C)O)NC(=O)[C@H](Cc2ccc(O)cc2)NC(=O)[C@H](C(C)C)NC(=O)[C@H](CC(=O)O)NC(=O)[C@H](Cc2ccc(O)cc2)NC(=O)[C@H](CCCCN)NC(=O)CNC(=O)[C@H](C(C)C)NC1=O` [compound 73, Ac-hLeu-Y-C-V-G-K-Y-D-V-Y-C-5FW-F-Thr-dLys(DOTA)-CONH2] (Ac-[hLeu]YCVGKYDVYC[Trp(5-F)]FT[dK](DOTA)-NH2; disulfide 3-11), the dissociation constant (Kd) on human 4lg B7-H3 (setting [3]) was < 1 nM. The “% net internalization” value with Calu-6 cell line [1] is “A (%≤25)”. The “% cell associated fraction” value in the test with Calu-6 cell line [2] was “C (%>50)”.
Take `CC(=O)N[C@@H](CCC(C)C)C(=O)N[C@@H](Cc1ccc(O)cc1)C(=O)N[C@H]1CSSC[C@@H](C(=O)N[C@@H](Cc2cccc3ccccc23)C(=O)N[C@@H](Cc2ccccc2)C(=O)N[C@H](C(=O)N[C@H](CCCCNC(=O)CN2CCN(CC(=O)O)CCN(CC(=O)O)CCN(CC(=O)O)CC2)C(=O)O)C(C)(C)O)NC(=O)[C@H](Cc2ccc(O)cc2)NC(=O)[C@H](C(C)C)NC(=O)[C@H](CC(=O)O)NC(=O)[C@H](CC2CCOCC2)NC(=O)[C@H](CC2CCNCC2)NC(=O)CNC(=O)[C@H](C(C)(C)C)NC1=O` [compound 436, Ac-hLeu-Y-C-Tbg-G-PipAla-ThpA-D-V-Y-C-1Nal-F-hydroxyVal-dLys(DOTA)-COOH] (Ac-[hLeu]YC[Tle]G[Ala(piperidin-4-yl)][Ala(4-THP)]DVYC[1Nal]F[Val(3-OH)][dK](DOTA)-OH; disulfide 3-11): the Kd at human 4lg B7-H3 (setting [5]) is < 1 nM. In the test with Calu-6 cell line [1], the “% net internalization” value was “A (%≤25)”. The “% cell associated fraction” value in the test on Calu-6 cell line [2] is “B (25<%≤50)”.
Take `CC(=O)N[C@@H](CCC(C)C)C(=O)N[C@@H](Cc1ccc(O)cc1)C(=O)N[C@H]1CSSC[C@@H](C(=O)N[C@@H](Cc2c[nH]c3ccc(F)cc23)C(=O)N[C@@H](Cc2ccccc2)C(=O)N[C@H](C(=O)N[C@H](C)C(N)=O)C(C)(C)O)NC(=O)[C@H](Cc2ccc(O)cc2)NC(=O)[C@H](C(C)C)NC(=O)[C@H](CC(=O)O)NC(=O)[C@H](CC2CCN(C(=O)CCOCCOCCOCCOCCNC(=O)CN3CCN(CC(=O)O)CCN(CC(=O)O)CCN(CC(=O)O)CC3)CC2)NC(=O)[C@H](CCCCN)NC(=O)CNC(=O)[C@H](C(C)(C)C)NC1=O` [compound 385, Ac-hLeu-Y-C-Tbg-G-K-Pip(PEG4-DOTA)Ala-D-V-Y-C-5FW-F-hydroxyVal-dAla-CONH2] (Ac-[hLeu]YC[Tle]GK[Ala(piperidin-4-yl)]([PEG4-DOTA])DVYC[Trp(5-F)]F[Val(3-OH)][dA]-NH2; disulfide 3-11): the Kd at human 4lg B7-H3 (setting [4]) was < 1 nM. In the test on Calu-6 cell line [1], the “% net internalization” value is “B (25<%≤50)”. Further, the “% cell associated fraction” value in the test with Calu-6 cell line [2] is on record as “C (%>50)”.
`CC(=O)N[C@@H](CCC(C)C)C(=O)N[C@@H](Cc1ccc(O)cc1)C(=O)N[C@H]1CSSC[C@@H](C(=O)N[C@@H](Cc2c[nH]c3ccc(F)cc23)C(=O)N[C@@H](Cc2ccccc2)C(=O)N[C@H](C(=O)N[C@H](CCCCNC(=O)CN2CCN(CC(=O)O)CCN(CC(=O)O)CCN(CC(=O)O)CC2)C(=O)O)C(C)(C)O)NC(=O)[C@H](Cc2ccc(NC(N)=O)cc2)NC(=O)[C@H](C(C)C)NC(=O)[C@H](CC(=O)O)NC(=O)[C@H](CC2CCOCC2)NC(=O)[C@H](CC2CCNCC2)NC(=O)CNC(=O)[C@H](C(C)(C)C)NC1=O` [compound 427, Ac-hLeu-Y-C-Tbg-G-PipAla-ThpA-D-V-Aph(Cbm)-C-5FW-F-hydroxyVal-dLys(DOTA)-COOH] (Ac-[hLeu]YC[Tle]G[Ala(piperidin-4-yl)][Ala(4-THP)]DV[Phe(4-NHCONH2)]C[Trp(5-F)]F[Val(3-OH)][dK](DOTA)-OH; disulfide 3-11): at human 4lg B7-H3 (setting [4]), the Kd is < 1 nM. Moreover, the “% net internalization” value with Calu-6 cell line [1] is recorded as “B (25<%≤50)”. The “% cell associated fraction” value in the test with Calu-6 cell line [2] is recorded as “C (%>50)”.
